Laboratory results published in patent US9580430B2, “9H-pyrimido[4,5-B]indoles and related analogs as BET bromodomain inhibitors” (THE REGENTS OF THE UNIVERSITY OF MICHIGAN, priority 2014, dated 2017).

Tests used:
MOLM-13 = test: Cell growth inhibition, MOLM-13 leukemia cells (CellTiter-Glo); type: cell-based; details: Homo sapiens, MOLM-13, 96 h; 4 days; read-out: IC50 (nM) MOLM-13 Cell Line (CellTiter-Glo assay)
Summary of the method: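 MOLM-13 leukemia cells treated with compounds; viability read by CellTiter-Glo luminescence after 10-20 min reagent incubation at room temperature. IC50 derived from luminescent signal.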

MDA-MB-436 = test: Cell growth inhibition, MDA-MB-436 breast cancer cells (WST-8); type: cell-based; details: Homo sapiens, MDA-MB-436, 96 h; 4 days; read-out: IC50 (nM) MDA-MB-436 Cell Line (WST assay)
Summary of the method: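 IC50 was computed from WST-8-based cell counting in MDA-MB-436 cells, with absorbance read at 450 nm.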

recombinant BRD4 BD1 = target: T1, recombinant BRD4 BD1 (Homo sapiens, UniProt O60885); test: Competitive fluorescence-polarization (FP) binding assay, BRD4 BD1; details: competitive FP assay; protein 10 nM, probe […]; read-out: IC50 (nM) BRD4 BD1; further: probe 1.5 nM
T1 construct: for recombinant BRD4 BD1 and BRD4 BD2 proteins
Summary of the method: (§1)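 FP competition with FAM-labelled probe (ZBA248 or BRD-1F) against preincubated protein/probe complex; BD1 at 10 nM and BD2 at 6 nM final, in 100 mM potassium phosphate pH 6.5, 0.01% Triton X-100. 30 min, room temperature. IC50 by nonlinear regression; Ki also derived, using probe Kd from protein saturation.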

recombinant BRD4 BD2 = target: T2, recombinant BRD4 BD2 (Homo sapiens, UniProt O60885); test: Competitive fluorescence-polarization (FP) binding assay, BRD4 BD2; details: competitive FP assay; protein 6 nM, probe […]; read-out: IC50 (nM) BRD4 BD2; further: probe 1.5 nM
T2 construct: for recombinant BRD4 BD1 and BRD4 BD2 proteins
Summary of the method: as §1

Compound	IC50 (MOLM-13) [nM]	IC50 (MDA-MB-436) [nM]	IC50 (recombinant BRD4 BD1) [nM]	IC50 (recombinant BRD4 BD2) [nM]
CCn1ncc(C)c1Nc1nc(C)nc2[nH]c3cc(-c4c(C)noc4C)c(OC)cc3c12 [Cpd. No. 176, 7-(3,5-dimethylisoxazol-4-yl)-N-(1-ethyl-4-methyl-1H-pyrazol-5-yl)-6-methoxy-2-methyl-9H-pyrimido[4,5-b]indol-4-amine]	52.9	83.3	13.7	10.3
COc1cc2c(cc1-c1c(C)noc1C)[nH]c1nc(C)nc(Nc3cc(C4CC4)nn3C(C)C)c12 [Cpd. No. 149, N-(3-Cyclopropyl-1-isopropyl-1H-pyrazol-5-yl)-7-(3,5-dimethylisoxazol-4-yl)-6-methoxy-2-methyl-9H-pyrimido[4,5-b]indol-4-amine]	7.2	14.2	6.8	5.4
COc1cc2c(cc1-c1c(C)noc1C)[nH]c1nc(C)nc(Nc3nn(C)c4ccc(Cl)cc34)c12 [Cpd. No. 13, N-(5-Chloro-1-methyl-1H-indazol-3-yl)-7-(3,5-dimethylisoxazol-4-yl)-6-methoxy-2-methyl-9H-pyrimido[4,5-b]indol-4-amine]	108	1080	> 1000	> 1000
CCn1nc(C)c(C2CC2)c1Nc1nc(C)nc2[nH]c3cc(-c4c(C)noc4C)c(OC)cc3c12 [Cpd. No. 143, N-(4-Cyclopropyl-1-ethyl-3-methyl-1H-pyrazol-5-yl)-7-(3,5-dimethylisoxazol-4-yl)-6-methoxy-2-methyl-9H-pyrimido[4,5-b]indol-4-amine]	98	175	27.9	57.7
COc1cc2c(cc1-c1c(C)noc1C)[nH]c1nc(C)nc(Nc3nn(C)c4c3CCCC4)c12 [Cpd. No. 124, 7-(3,5-Dimethylisoxazol-4-yl)-6-methoxy-2-methyl-N-(1-methyl-4,5,6,7-tetrahydro-1H-indazol-3-yl)-9H-pyrimido[4,5-b]indol-4-amine]	41.9	58.3	5	29.5

Second part, the molecule after the results:

IC50 (MOLM-13) [nM]	IC50 (MDA-MB-436) [nM]	IC50 (recombinant BRD4 BD1) [nM]	IC50 (recombinant BRD4 BD2) [nM]	Compound
41	72	10	5	COc1cc2c(cc1-c1c(C)noc1C)[nH]c1nc(C)nc(Nc3cc(C)cc(C)c3)c12 [Cpd. No. 237, 7-(3,5-dimethylisoxazol-4-yl)-N-(3,5-dimethylphenyl)-6-methoxy-2-methyl-9H-pyrimido[4,5-b]indol-4-amine]
61	162	15	14	COc1cc2c(cc1-c1c(C)noc1C)[nH]c1nc(C)nc(Nc3ccccc3C(C)C)c12 [Cpd. No. 243, 7-(3,5-dimethylisoxazol-4-yl)-N-(2-isopropylphenyl)-6-methoxy-2-methyl-9H-pyrimido[4,5-b]indol-4-amine]
498	1930	165	68	COc1cc2c(cc1-c1c(C)noc1C)[nH]c1nc(C)nc(Nc3cccc(Cl)c3F)c12 [Cpd. No. 217, N-(3-chloro-2-fluorophenyl)-7-(3,5-dimethylisoxazol-4-yl)-6-methoxy-2-methyl-9H-pyrimido[4,5-b]indol-4-amine]
189	315	213	108	COc1cc2c(cc1-c1c(C)noc1C)[nH]c1nc(C)nc(Nc3cc(F)cc(Cl)c3)c12 [Cpd. No. 225, N-(3-chloro-5-fluorophenyl)-7-(3,5-dimethylisoxazol-4-yl)-6-methoxy-2-methyl-9H-pyrimido[4,5-b]indol-4-amine]
192	740	105	33	COc1cc2c(cc1-c1c(C)noc1C)[nH]c1nc(C)nc(Nc3cc(Cl)ccc3F)c12 [Cpd. No. 224, N-(5-chloro-2-fluorophenyl)-7-(3,5-dimethylisoxazol-4-yl)-6-methoxy-2-methyl-9H-pyrimido[4,5-b]indol-4-amine]
